Measurements published in US20110144159A1, “ETHER BENZYLIDENE PIPERIDINE ARYL CARBOXAMIDE COMPOUNDS USEFUL AS FAAH INHIBITORS” (Pfizer Inc, priority 2008, published 2011).

Target: T1, Human FAAH (Homo sapiens, UniProt O00519)
T1 construct: made in house
T1 sequence (O00519 32-579 limits assumed): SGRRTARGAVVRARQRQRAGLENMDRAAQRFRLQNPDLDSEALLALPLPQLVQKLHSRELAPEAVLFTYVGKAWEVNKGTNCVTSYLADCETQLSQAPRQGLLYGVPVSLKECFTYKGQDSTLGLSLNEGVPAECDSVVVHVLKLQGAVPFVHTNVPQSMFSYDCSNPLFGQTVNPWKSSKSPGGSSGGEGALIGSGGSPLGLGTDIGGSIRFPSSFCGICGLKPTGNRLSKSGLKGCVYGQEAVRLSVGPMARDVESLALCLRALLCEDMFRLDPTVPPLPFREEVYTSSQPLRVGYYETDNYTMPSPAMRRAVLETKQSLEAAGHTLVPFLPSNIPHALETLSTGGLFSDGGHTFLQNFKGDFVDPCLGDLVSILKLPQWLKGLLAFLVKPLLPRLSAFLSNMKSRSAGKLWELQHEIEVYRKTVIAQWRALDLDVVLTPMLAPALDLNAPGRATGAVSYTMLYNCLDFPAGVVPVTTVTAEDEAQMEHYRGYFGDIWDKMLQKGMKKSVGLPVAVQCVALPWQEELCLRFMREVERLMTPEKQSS
Experiment: FAAH assay (glutamate dehydrogenase-coupled, oleamide substrate, absorbance at 340 nm)
Type: biochemical
Settings: irreversible inhibition potency
Description: A FAAH assay may be carried out in 384-well clear polystyrene plates in a total volume of 50 μl per well. All percents are by volume. To each well was placed the reaction mixture (40 μl) containing 1-4 nM FAAH, 50 mM NaPi, pH 7.4, 3 mM α-ketoglutarate, 0.15 mM NADH, 7.5 U/ml glutamate dehydrogenase, 2 mM ADP, 1 mM EDTA, and 0.1% Triton X-100 (The concentration shown for each component was the final concentration in the assay). To this mixture was added 5 μl of a compound of Examples 1 to 20 at various concentrations prepared in 50% DMSO (or 5 μl 50% DMSO for controls). This was immediately followed by the addition of 5 μl oleamide (500 μM) dissolved in 75% EtOH/25% DMSO and the reaction mixture was mixed for 1.5 min. The final concentrations of DMSO and EtOH in the assay are each 7.5%. The reactions was then incubated at 30° C. and the absorbance at 340 nm was collected over a period of 90 min with readings taken in 30-second intervals using SpectraMax Plus^384 Microplate Spectrophotometer (Molecular Devices, Sunnyvale, Calif.). Human FAAH used in the assay was prepared as described in the patent application WO 2006/067613. The purity of the enzyme used was greater than 98% based on an analysis by SDS-polyacrylamide gel electrophoresis followed by Coomassie Blue staining.
Initial velocity data (V) is obtained from the slopes of the initial progressive curves. They are plotted as a function of substrate concentration and fit to the Michaelis-Menten equation (1) using Prism (GraphPad Software, Inc., San Diego, Calif.) software to obtain Km and Vmax values.
To obtain potencies of irreversible inhibitors, progressive curves consistent with first order inhibition kinetics (two-step irreversible inhibition mechanism) are fit to equation (2) by nonlinear least squares regressions to determine kobs values at each inhibitor concentration, where [P]t is the absorbance at time t, V0 is a constant related to the steady state rate of the uninhibited reaction, and kobs is the first order rate constant for enzyme inactivation. The inhibitor dissociation constant (Ki) and the first order rate
constant of enzyme inactivation at infinite inhibitor concentration (kinact) are then obtained by fitting the kobs vs. [I] curves to equation (3).

**Q.** `CCC(CC)Oc1cccc(C=C2CCN(C(=O)Nc3cccnc3)CC2)c1` [Example 14, 4-[3-(1-ethylpropoxy)benzylidene]-N-pyridin-3-ylpiperidine-1-carboxamide] was tested. Which “hFAAH KInact/K” value did it give?
**A.** The value was 718 M⁻¹ s⁻¹.

**Q.** For `CCC(CC)Oc1cccc(C=C2CCN(C(=O)Nc3cccnc3)CC2)c1` [Example 15, 4-[3-(1-ethylpropoxy)benzylidene]-N-pyridin-3-ylpiperidine-1-carboxamide], which “hFAAH KInact/K” value is on record?
**A.** Its value is 216 M⁻¹ s⁻¹.

**Q.** With `O=C(Nc1cccnn1)N1CCC(=Cc2cccc(OC3CCCCCC3)c2)CC1` [Example 16, 4-[3-(cycloheptyloxy)benzylidene]-N-pyridazin-3-ylpiperidine-1-carboxamide] as the compound, how does the “hFAAH KInact/K” value read?
**A.** Its value is 2190 M⁻¹ s⁻¹.

**Q.** With `O=C(Nc1cccnn1)N1CCC(=Cc2cccc(OC3CCOC3)c2)CC1` (stereo not drawn) [Example 17, N-pyridazin-3-yl-4-[3-(tetrahydrofuran-3-yloxy)benzylidene]piperidine-1-carboxamide] as the compound, how does the “hFAAH KInact/K” value read?
**A.** Its value is 371 M⁻¹ s⁻¹.

**Q.** Which “hFAAH KInact/K” value does the source give for `O=C(Nc1cccnc1)N1CCC(=Cc2cccc(OC3CCCCCC3)c2)CC1` [Example 18, 4-[3-(cycloheptyloxy)benzylidene]-N-pyridin-3-ylpiperidine-1-carboxamide] here?
**A.** The value was 1020 M⁻¹ s⁻¹.

**Q.** Which “hFAAH KInact/K” value does the source give for `O=C(Nc1cccnn1)N1CCC(=Cc2cccc(OC3CCCOC3)c2)CC1` (stereo not drawn) [Example 19, N-pyridazin-3-yl-4-[3-(tetrahydro-2H-pyran-3-yloxy)benzylidene]piperidine-1-carboxamide] here?
**A.** Its value is 783 M⁻¹ s⁻¹.

**Q.** Which “hFAAH KInact/K” value does the source give for `O=C(Nc1cccnc1)N1CCC(=Cc2cccc(OC3CCOC3)c2)CC1` (stereo not drawn) [Example 20, N-pyridin-3-yl-4-[3-(tetrahydrofuran-3-yloxy)benzylidene]piperidine-1-carboxamide] here?
**A.** The value was 451 M⁻¹ s⁻¹.

**Q.** Which “hFAAH KInact/K” value does the source give for `CCC(C)Oc1cccc(C=C2CCN(C(=O)Nc3cccnn3)CC2)c1` (stereo not drawn) [Example 21, 4-(3-sec-butoxybenzylidene)-N-pyridazin-3-ylpiperidine-1-carboxamide] here?
**A.** Its value is 973 M⁻¹ s⁻¹.

**Q.** How did the “hFAAH KInact/K” value turn out when `CCC(C)Oc1cccc(C=C2CCN(C(=O)Nc3cccnn3)CC2)c1` (stereo not drawn) [Example 22, 4-(3-sec-butoxybenzylidene)-N-pyridazin-3-ylpiperidine-1-carboxamide] was run?
**A.** Its value is 1260 M⁻¹ s⁻¹.

**Q.** How did the “hFAAH KInact/K” value turn out when `CCC(C)Oc1cccc(C=C2CCN(C(=O)Nc3cccnc3)CC2)c1` (stereo not drawn) [Example 23, 4-(3-sec-butoxybenzylidene)-N-pyridin-3-ylpiperidine-1-carboxamide] was run?
**A.** The value was 555 M⁻¹ s⁻¹.

**Q.** Which “hFAAH KInact/K” value does the source give for `CCC(C)Oc1cccc(C=C2CCN(C(=O)Nc3cccnc3)CC2)c1` (stereo not drawn) [Example 24, 4-(3-sec-butoxybenzylidene)-N-pyridin-3-ylpiperidine-1-carboxamide] here?
**A.** Its value is 758 M⁻¹ s⁻¹.

**Q.** For `C=CC(C)Oc1cccc(C=C2CCN(C(=O)Nc3cccnc3)CC2)c1` (stereo not drawn) [Example 25, 4-{3-[(1-methylprop-2-en-1-yl)oxy]benzylidene}-N-pyridin-3-ylpiperidine-1-carboxamide], which “hFAAH KInact/K” value is on record?
**A.** The value was 939 M⁻¹ s⁻¹.

**Q.** How did the “hFAAH KInact/K” value turn out when `C=CC(C)Oc1cccc(C=C2CCN(C(=O)Nc3cccnn3)CC2)c1` (stereo not drawn) [Example 26, 4-{3-[(1-methylprop-2-en-1-yl)oxy]benzylidene}-N-pyridazin-3-ylpiperidine-1-carboxamide] was run?
**A.** The value was <10.0 M⁻¹ s⁻¹.

**Q.** For `CCC(CC)Oc1cccc(C=C2CCN(C(=O)Nc3cccnn3)CC2)c1` [Example 27, 4-[3-(1-ethylpropoxy)benzylidene]-N-pyridazin-3-ylpiperidine-1-carboxamide], which “hFAAH KInact/K” value is on record?
**A.** The value was 1030 M⁻¹ s⁻¹.

**Q.** With `CCC(CC)Oc1cccc(C=C2CCN(C(=O)Nc3cccnn3)CC2)c1` [Example 28, 4-[3-(1-ethylpropoxy)benzylidene]-N-pyridazin-3-ylpiperidine-1-carboxamide] as the compound, how does the “hFAAH KInact/K” value read?
**A.** Its value is 303 M⁻¹ s⁻¹.

**Q.** How did the “hFAAH KInact/K” value turn out when `O=C(Nc1cccnc1)N1CCC(=Cc2cccc(OC3CC3)c2)CC1` [Example 29, 4-[3-(cyclopropyloxy)benzylidene]-N-pyridin-3-ylpiperidine-1-carboxamide] was run?
**A.** The value was 1300 M⁻¹ s⁻¹.

**Q.** With `CCCC(C)Oc1cccc(C=C2CCN(C(=O)Nc3cccnn3)CC2)c1` (stereo not drawn) [Example 30, 4-[3-(1-methylbutoxy)benzylidene]-N-pyridazin-3-ylpiperdine-1-carboxamide] as the compound, how does the “hFAAH KInact/K” value read?
**A.** Its value is 3440 M⁻¹ s⁻¹.

**Q.** With `CCCC(C)Oc1cccc(C=C2CCN(C(=O)Nc3cccnn3)CC2)c1` (stereo not drawn) [Example 31, 4-[3-(1-methylbutoxy)benzylidene]-N-pyridazin-3-ylpiperidine-1-carboxamide] as the compound, how does the “hFAAH KInact/K” value read?
**A.** The value was 7450 M⁻¹ s⁻¹.

**Q.** With `CC1CCCC(Oc2cccc(C=C3CCN(C(=O)Nc4cccnc4)CC3)c2)C1` (stereo not drawn) [Example 32, 4-{3-[(3-methylcyclohexyl)oxy]benzylidene}-N-pyridin-3-ylpiperidine-1-carboxamide] as the compound, how does the “hFAAH KInact/K” value read?
**A.** The value was 712 M⁻¹ s⁻¹.

**Q.** For `O=C(Nc1cccnn1)N1CCC(=Cc2cccc(OC3CC3)c2)CC1` [Example 33, 4-[3-(cyclopropyloxy)benzylidene]-N-pyridazin-3-ylpiperidine-1-carboxamide], which “hFAAH KInact/K” value is on record?
**A.** The value was 1730 M⁻¹ s⁻¹.

**Q.** How did the “hFAAH KInact/K” value turn out when `CCCC(C)Oc1cccc(C=C2CCN(C(=O)Nc3cccnc3)CC2)c1` (stereo not drawn) [Example 34, 4-[3-(1-methylbutoxy)benzylidene]-N-pyridin-3-ylpiperidine-1-carboxamide] was run?
**A.** Its value is 1810 M⁻¹ s⁻¹.

**Q.** Which “hFAAH KInact/K” value does the source give for `CCCC(C)Oc1cccc(C=C2CCN(C(=O)Nc3cccnc3)CC2)c1` (stereo not drawn) [Example 35, 4-[3-(1-methylbutoxy)benzylidene]-N-pyridin-3-ylpiperidine-1-carboxamide] here?
**A.** Its value is 2680 M⁻¹ s⁻¹.

**Q.** Which “hFAAH KInact/K” value does the source give for `CC1CCC(Oc2cccc(C=C3CCN(C(=O)Nc4cccnc4)CC3)c2)CC1` (stereo not drawn) [Example 36, 4-{3-[(4-methylcyclohexyl)oxy]benzylidene}-N-pyridin-3-ylpiperidine-1-carboxamide] here?
**A.** Its value is 992 M⁻¹ s⁻¹.

**Q.** `CC(C)Oc1cccc(C=C2CCN(C(=O)Nc3cccnc3)CC2)c1` [Example 37, 4-(3-isopropoxybenzylidene)-N-pyridin-3-ylpiperidine-1-carboxamide] was tested. Which “hFAAH KInact/K” value did it give?
**A.** Its value is 1380 M⁻¹ s⁻¹.

**Q.** For `CC1CCCC(Oc2cccc(C=C3CCN(C(=O)Nc4cccnn4)CC3)c2)C1` (stereo not drawn) [Example 38, 4-{3-[(3-methylcyclohexyl)oxy]benzylidene}-N-pyridazin-3-ylpiperidine-1-carboxamide], which “hFAAH KInact/K” value is on record?
**A.** Its value is 1090 M⁻¹ s⁻¹.

**Q.** With `CC1CCC(Oc2cccc(C=C3CCN(C(=O)Nc4cccnn4)CC3)c2)CC1` (stereo not drawn) [Example 39, 4-{3-[(4-methylcyclohexyl)oxy]benzylidene}-N-pyridazin-3-ylpiperidine-1-carboxamide] as the compound, how does the “hFAAH KInact/K” value read?
**A.** Its value is 2090 M⁻¹ s⁻¹.

**Q.** `CC(C)Oc1cccc(C=C2CCN(C(=O)Nc3cccnn3)CC2)c1` [Example 40, 4-(3-isopropoxybenzylidene)-N-pyridazin-3-ylpiperidine-1-carboxamide] was tested. Which “hFAAH KInact/K” value did it give?
**A.** Its value is 2350 M⁻¹ s⁻¹.

**Q.** With `CCCC(CC)Oc1cccc(C=C2CCN(C(=O)Nc3cccnn3)CC2)c1` (stereo not drawn) [Example 41, 4-[3-(1-ethylbutoxy)benzylidene]-N-pyridazin-3-ylpiperidine-1-carboxamide] as the compound, how does the “hFAAH KInact/K” value read?
**A.** The value was 1800 M⁻¹ s⁻¹.

**Q.** Which “hFAAH KInact/K” value does the source give for `CCCC(CC)Oc1cccc(C=C2CCN(C(=O)Nc3cccnc3)CC2)c1` (stereo not drawn) [Example 42, 4-[3-(1-ethylbutoxy)benzylidene]-N-pyridin-3-ylpiperidine-1-carboxamide] here?
**A.** Its value is 551 M⁻¹ s⁻¹.

**Q.** For `O=C(Nc1cccnc1)N1CCC(=Cc2cccc(OC3CCOCC3)c2)CC1` [Example 43, N-pyridin-3-yl-4-[3-(tetrahydro-2H-pyran-4-yloxy)benzylidene]piperidine-1-carboxamide], which “hFAAH KInact/K” value is on record?
**A.** Its value is 738 M⁻¹ s⁻¹.
